Data as given in patent publication US11286233B2, “Stilbene derivatives for the treatment of CNS and other disorders” (AMBIENT PHOTONICS, INC., priority 2017, dated 2022).
pEC50: −log10 of the molar value.

What was measured:
Aβ1-42:Zn = target: T1, Aβ1-42:Zn (Homo sapiens, UniProt P05067); assay: Fluorescence-based (bis-ANS) assay of Aβ1-42:Zn disaggregation; assay type: biochemical; details: Aβ1-42 15 μM, bis-ANS 15 μM, Zn 15 μM; Tris-HCl pH7.4, 26° C.; test compounds 0.227-60 μM added after plateau, read over 20 minutes; concentration reducing fluorescence by 50 percent
T1 construct: Human peptides Aβ1-42 and Amylin 8-37 were purchased; purchased China Peptide
T1 sequence (P05067 672-713): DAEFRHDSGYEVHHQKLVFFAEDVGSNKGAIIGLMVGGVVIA
Description: Human peptides Aβ1-42 and Amylin 8-37 were purchased from China Peptide and stored at −80° C. […] The device was configured to maintain 26° C., measure an excitation of 390 nm, emission of 490 nm and cutoff 475 nm with the PMT+set at Medium, 6 flashes/read at 40 second intervals with shaking 5 seconds before the first read and 3 seconds between reads. Experiments were conducted at 26° C. in a Tris-HCl buffer (50 mM, pH7.4) containing NaCl (150 mM). Aβ1-42 was solubilized in DMSO to a concentration of 1.5 mM for 5 minutes then briefly centrifuged to remove any aggregates. The soluble Aβ1-42 (15 μM) was immediately mixed ±bis-ANS (15 μM) and allowed to equilibrate for 5 minutes. Aβ aggregation was induced with the addition of ±Zn (15 μM) in H2O. […] Test compounds (0.227-60 μM in DMSO) were then added and the dose response was measured over a 20-minute period. EDTA, known to chelate Zn, was used as a positive control. Raw fluorescence was normalized to background fluorescence without Aβ and expressed as a percentage of that in control samples without Zn. All quantitative data was expressed as mean±SEM from at least 3 replicates. All statistical analysis was conducted with Prism 6 (GraphPad).

Amylin 8-37 = target: T2, Amylin 8-37 (Homo sapiens, UniProt P10997); assay: Fluorescence-based (bis-ANS) assay of Amylin disaggregation; assay type: biochemical; details: Amylin 8-37 15 μM, bis-ANS 15 μM; Tris-HCl pH7.4, 26° C.; aggregation 24 hours, test compounds 0.227-60 μM, read over 24 hour period; concentration reducing fluorescence by 50 percent
T2 construct: Amylin 8-37 peptide was solubilized in DMSO; purchased China Peptide
T2 sequence (P10997 41-70): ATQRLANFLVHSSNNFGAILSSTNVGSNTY
Description: Human peptides Aβ1-42 and Amylin 8-37 were purchased from China Peptide and stored at −80° C. Zinc sulfate heptahydrate (ZnSO4.7H2O), BisANS (4,4′-Dianilino-1,1′-binaphthyl-5,5′-disulfonic acid dipotassium salt), Epigallocatechin-3-gallate (EGCG), 9-(Dicyanovinyl)julolidine (DCVJ) and Clioquinol (CQ) were purchased from Sigma Aldrich. Ethylenediaminetetraacetic acid (EDTA) was purchased from Alfa Aesar. 2-(dimethylamino)methyl-5,7-dichloro-8-hydroxyquinoline (AC-068), structurally similar to PBT-2 was synthesized by Warner Babcock Institute for Green Chemistry, LLC.
Amylin disaggregation was assessed using a Spectramax M5 multi-mode microplate reader (Molecular Devices) using untreated black with clear bottom 96 well plates (Costar #3631). The device was configured to maintain 26° C., measure an excitation of 390 nm, emission of 490 nm and cutoff 475 nm with the PMT+set at Medium, 6 flashes/read at 5-minute intervals with shaking 5 seconds before the first read and 3 seconds between reads.
Experiments were conducted at 26° C. in a Tris-HCl buffer (50 mM, pH7.4) containing NaCl (150 mM). Amylin 8-37 peptide was solubilized in DMSO to a concentration of 1.5 mM for 5 minutes then briefly centrifuged to remove any aggregates. The soluble amylin peptide (15 μM) was immediately mixed ±bis-ANS (15 μM) and the plate sealed to prevent evaporation. Aggregation was measured by an increase in fluorescence over 24 hours. Test compounds (0.227-60 μM in DMSO) were then added and the dose response was measured over a 24 hour period. EGCG was used as a positive control. Raw fluorescence was normalized to background fluorescence without Amylin and expressed as a percentage of that in control samples. All quantitative data was expressed as mean±SEM from at least 3 replicates. All statistical analysis was conducted with Prism 6 (GraphPad). Nonlinear regression was used to calculate the concentration at which fluorescence was reduced by 50 percent (EC50), as shown in Table 2.

Compound	pEC50 (Aβ1-42:Zn)	pEC50 (Amylin 8-37)
Epigallocatechin-3-gallate [EGCG, reference compound]	–	6.07
CN(C)Cc1ccc2c(Cl)cc(Cl)c(O)c2n1 [AC-068(PBT2), 2-(dimethylamino)methyl-5,7-dichloro-8-hydroxyquinoline, reference compound]	5.65	–
O=C(O)CN(CCN(CC(=O)O)CC(=O)O)CC(=O)O [EDTA, Ethylenediaminetetraacetic acid, reference compound]	4.34	–
N#CC(C#N)=Cc1cc2c3c(c1)CCCN3CCC2 [DCVJ, 9-(Dicyanovinyl)julolidine, reference compound]	6.27	–
Oc1c(I)cc(Cl)c2cccnc12 [CQ, Clioquinol, reference compound]	5.57	5.39

Now from value to compound:

pEC50 (Aβ1-42:Zn)	pEC50 (Amylin 8-37)	Compound
4.30	5.43	CC(C)(C)c1ccc(N(c2ccc(/C=C/c3ccc4cc(C#N)c(=O)[nH]c4c3)cc2)c2ccc(C(C)(C)C)cc2)cc1 [PC-174, 7-[(E)-2-[4-(4-tert-butyl-N-(4-tert-butylphenyl)anilino)phenyl]vinyl]-2-oxo-1H-quinoline-3-carbonitrile]
5.79	–	N#C/C(=C/c1ccc(/C=C/c2ccc(N(c3ccccc3)c3ccccc3)cc2)cc1OCCCCCCCC(=O)O)C(=O)O [PC-191]
4.51	5.90	COc1cc(/C=C/c2ccc(N(c3ccc(C(C)(C)C)cc3)c3ccc(C(C)(C)C)cc3)cc2)c(OC)cc1C=C(C#N)C(=O)O (stereo in doubt) [PC-063, (Z)-3-[4-[(E)-2-[4-(4-tert-butyl-N-(4-tert-butylphenyl)anilino)phenyl]vinyl]-2,5-dimethoxy-phenyl]-2-cyano-prop-2-enoic Acid]
–	5.92	COc1cc(/C=C(\C#N)C(=O)O)c(OC)cc1/C=C/c1ccc(-n2c3ccc(C(C)(C)C)cc3c3cc(C(C)(C)C)ccc32)cc1 [PC-066, (E)-2-cyano-3-[4-[(E)-2-[4-(3,6-ditert-butylcarbazol-9-yl)phenyl]vinyl]-2,5-dimethoxy-phenyl]prop-2-enoic Acid]
6.47	6.68	N#C/C(=C/c1ccc(-c2ccc(N(c3ccccc3)c3ccccc3)cc2)o1)C(=O)O [PC-081, (Z)-2-cyano-3-[5-[4-(N-phenylanilino)phenyl]-2-furyl]prop-2-enoic Acid]
5.55	–	N#C/C(=C/c1ccc(/C=C/c2ccc(N(c3ccccc3)c3ccccc3)cc2)cc1OCCCCCCCCCC(=O)O)C(=O)O [PC-192]
6.13	7.62	N#CC(=Cc1ccc(/C=C/c2ccc(N(c3ccccc3)c3ccccc3)cc2)cc1)C(=O)O (stereo in doubt) [PC-064, (Z)-2-cyano-3-[4-[(E)-2-[4-(N-phenylanilino)phenyl]vinyl]phenyl]prop-2-enoic Acid]
6.19	–	N#C/C(=C/c1ccc(/C=C/c2ccc(N(c3ccccc3)c3ccccc3)cc2)cc1OCC(=O)O)C(=O)O [PC-190, (Z)-3-[2-(carboxymethoxy)-4-[(E)-2-[4-(N-phenylanilino)phenyl]vinyl]phenyl]-2-cyano-prop-2-enoic Acid]
